Data published in patent US20070155746A1, “NOVEL SUBSTITUTED PYRIDINYLOXY AND PYRIMIDINYLOXY AMIDES USEFUL AS INHIBITORS OF PROTEIN KINASES” (KALYPSYS, INC., priority 2005, published 2007).

How the values were obtained:
Type in all cases: biochemical
[1] = molecular target: T1, human B-Raf protein kinase (Homo sapiens, UniProt P15056); assay: In vitro B-Raf/Mek1 composite kinase assay
T1 construct: GST (N); purchased Upstate Inc. 14-530 (B-Raf); 14-420 (Mek1)
Method: In Vitro B-Raf/Mek1 Composite Kinase Assay
2.5 μl of B-Raf kinase buffer (20 mM MOPS [pH 7.2], 25 mM sodium glycerophosphate, 2 mM EGTA [pH 8.0], 1 mM sodium orthovanadate, 1 mM dithiothreitol, 10 mM MgCl2, 0.03% Brij-35, 0.3 mg/ml bovine serum albumin) containing lng of recombinant, N-terminal GST-tagged human B-Raf protein kinase (Δ1-415, Upstate Inc., cat. #14-530) is dispensed to wells of a 1536 multi-well white solid plate. 60 nl of 100× concentration of test compound in DMSO is dispensed to the well by passive pin transfer and incubated for 15 minutes at room temperature (approx. 22° C.). […] The assay plates are sealed and maintained in a humidified environment. After 2 hours, 2.5 μl of PKLight protein kinase assay reagent (Cambrex, cat. #LT07-501) is dispensed. After an additional 5 minute incubation at room temperature, luminescence activity is measured on a Molecular Devices Analyst multi-mode plate reader or other suitable plate reader. Kinase inhibition results in less ATP depletion, and therefore increased luminescence signal. Negative control activity is measured with DMSO lacking any test compound. The positive control is [N-(3-trifluoromethyl-4-chlorophenyl)-N′-(4-(2-methylcarbamoyl-pyridin-4-yl)oxyphenyl)urea], aka Bay 43-9006. Efficacy is measured as a percentage of positive control activity.

VEGFR2 kinase = molecular target: T2, VEGFR2 kinase (Homo sapiens, UniProt P35968); assay: In vitro VEGFR2 kinase assay
T2 construct: purchased Invitrogen Inc PV3660
Method: (§1) In Vitro VEGFR2 and PDGFRP Kinase Assays
(§2) 2.5 μl of ADP Quest assay buffer (DiscoverX Inc., cat. #90-0071) containing 20 ng VEGFR2 kinase (Invitrogen Inc, cat. #PV3660) or 25 ng PDGFRβ kinase (Invitrogen Inc., cat. #P3082) is dispensed to wells of a 1536 multi-well, black solid plate. 60 nl of 100× concentration of test compound in DMSO is dispensed to the well by passive pin transfer and incubated for 10 minutes at room temperature (approx. 22° C.). 2.5 μl of ADP Quest assay buffer containing 0.25 μg of poly Glu:Tyr (4:1) substrate peptide (Upstate Inc., cat. #12-440) and 60 μM ATP is then dispensed and the kinase reaction allowed to incubate at 30° C. for 2 hours. The assay plates are sealed and maintained in a humidified environment. After the 2 hour incubation, 2 μl of ADP Quest assay reagent A, followed by 2 μl of assay reagent B, is added. After an additional 30 minute incubation at room temperature, fluorescence intensity is measured on a Molecular Devices Aquest multi-mode plate reader or other suitable plate reader (fluorescence excitation filter: 530/25 [Peak(nm)/FWHM passband(nm)]; dichroic beamsplitter: 561 nm longpass; fluorescence emission filter: 580/10 [Peak(nm)/FWHM passband(nm)]. The assay measures the conversion of a non-fluoresecent molecule to fluorescent resorufin, which correlates with kinase activity. Negative control activity is measured with DMSO lacking any test compound. The positive control is [N-(3-trifluoromethyl-4-chlorophenyl)-N′-(4-(2-methylcarbamoyl-pyridin-4-yl)oxyphenyl)urea], aka Bay 43-9006. Efficacy is measured as a percentage of positive control activity.

PDGFRβ kinase = molecular target: T3, PDGFRβ kinase (Homo sapiens, UniProt P09619); assay: In vitro PDGFRβ kinase assay
T3 construct: purchased Invitrogen Inc. P3082
Method: as §1, §2

T2 sequence (P35968 20-1356): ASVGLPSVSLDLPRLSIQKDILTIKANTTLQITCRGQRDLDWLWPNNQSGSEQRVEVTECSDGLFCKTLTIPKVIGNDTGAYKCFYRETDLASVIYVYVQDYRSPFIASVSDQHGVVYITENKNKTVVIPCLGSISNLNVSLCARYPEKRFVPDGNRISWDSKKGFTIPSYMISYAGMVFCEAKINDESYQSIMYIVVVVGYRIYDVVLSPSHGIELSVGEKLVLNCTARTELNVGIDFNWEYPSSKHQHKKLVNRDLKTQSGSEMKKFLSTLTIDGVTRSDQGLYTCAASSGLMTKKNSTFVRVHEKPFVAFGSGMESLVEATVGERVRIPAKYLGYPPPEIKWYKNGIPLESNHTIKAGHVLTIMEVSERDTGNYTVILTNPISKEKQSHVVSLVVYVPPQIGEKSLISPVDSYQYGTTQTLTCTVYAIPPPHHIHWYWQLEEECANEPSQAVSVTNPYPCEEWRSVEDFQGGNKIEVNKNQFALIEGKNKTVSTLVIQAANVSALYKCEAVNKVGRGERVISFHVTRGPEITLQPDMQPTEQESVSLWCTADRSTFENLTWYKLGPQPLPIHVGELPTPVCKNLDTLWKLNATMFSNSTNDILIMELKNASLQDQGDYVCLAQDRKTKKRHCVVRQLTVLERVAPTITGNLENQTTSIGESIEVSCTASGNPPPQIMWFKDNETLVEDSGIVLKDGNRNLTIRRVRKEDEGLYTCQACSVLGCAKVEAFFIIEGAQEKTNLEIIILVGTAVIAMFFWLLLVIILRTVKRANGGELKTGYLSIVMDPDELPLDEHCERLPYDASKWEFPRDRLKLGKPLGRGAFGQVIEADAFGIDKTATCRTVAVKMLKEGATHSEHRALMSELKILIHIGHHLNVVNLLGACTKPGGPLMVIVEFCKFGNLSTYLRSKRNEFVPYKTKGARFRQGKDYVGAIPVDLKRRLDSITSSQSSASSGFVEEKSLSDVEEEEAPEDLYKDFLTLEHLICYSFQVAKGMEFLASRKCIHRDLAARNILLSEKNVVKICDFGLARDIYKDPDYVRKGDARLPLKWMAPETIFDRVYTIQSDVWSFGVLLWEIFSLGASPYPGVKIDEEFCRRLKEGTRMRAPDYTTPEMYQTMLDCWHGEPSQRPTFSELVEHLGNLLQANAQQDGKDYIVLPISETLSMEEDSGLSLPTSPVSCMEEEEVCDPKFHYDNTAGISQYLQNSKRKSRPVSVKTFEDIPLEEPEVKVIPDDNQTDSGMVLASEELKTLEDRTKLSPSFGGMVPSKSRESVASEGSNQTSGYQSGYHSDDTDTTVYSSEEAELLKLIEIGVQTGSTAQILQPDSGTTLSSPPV
T1 sequence (P15056 416-766): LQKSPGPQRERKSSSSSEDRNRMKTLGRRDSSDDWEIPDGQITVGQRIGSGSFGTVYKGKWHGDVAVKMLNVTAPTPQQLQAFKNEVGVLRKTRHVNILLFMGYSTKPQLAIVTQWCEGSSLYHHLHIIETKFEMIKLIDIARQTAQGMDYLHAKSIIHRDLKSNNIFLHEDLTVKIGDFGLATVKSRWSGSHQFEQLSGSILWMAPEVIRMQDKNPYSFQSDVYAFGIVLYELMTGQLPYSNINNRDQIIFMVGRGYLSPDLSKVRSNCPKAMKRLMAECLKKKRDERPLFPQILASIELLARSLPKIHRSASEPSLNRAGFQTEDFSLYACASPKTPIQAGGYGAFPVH
T3 sequence (P09619 33-1106): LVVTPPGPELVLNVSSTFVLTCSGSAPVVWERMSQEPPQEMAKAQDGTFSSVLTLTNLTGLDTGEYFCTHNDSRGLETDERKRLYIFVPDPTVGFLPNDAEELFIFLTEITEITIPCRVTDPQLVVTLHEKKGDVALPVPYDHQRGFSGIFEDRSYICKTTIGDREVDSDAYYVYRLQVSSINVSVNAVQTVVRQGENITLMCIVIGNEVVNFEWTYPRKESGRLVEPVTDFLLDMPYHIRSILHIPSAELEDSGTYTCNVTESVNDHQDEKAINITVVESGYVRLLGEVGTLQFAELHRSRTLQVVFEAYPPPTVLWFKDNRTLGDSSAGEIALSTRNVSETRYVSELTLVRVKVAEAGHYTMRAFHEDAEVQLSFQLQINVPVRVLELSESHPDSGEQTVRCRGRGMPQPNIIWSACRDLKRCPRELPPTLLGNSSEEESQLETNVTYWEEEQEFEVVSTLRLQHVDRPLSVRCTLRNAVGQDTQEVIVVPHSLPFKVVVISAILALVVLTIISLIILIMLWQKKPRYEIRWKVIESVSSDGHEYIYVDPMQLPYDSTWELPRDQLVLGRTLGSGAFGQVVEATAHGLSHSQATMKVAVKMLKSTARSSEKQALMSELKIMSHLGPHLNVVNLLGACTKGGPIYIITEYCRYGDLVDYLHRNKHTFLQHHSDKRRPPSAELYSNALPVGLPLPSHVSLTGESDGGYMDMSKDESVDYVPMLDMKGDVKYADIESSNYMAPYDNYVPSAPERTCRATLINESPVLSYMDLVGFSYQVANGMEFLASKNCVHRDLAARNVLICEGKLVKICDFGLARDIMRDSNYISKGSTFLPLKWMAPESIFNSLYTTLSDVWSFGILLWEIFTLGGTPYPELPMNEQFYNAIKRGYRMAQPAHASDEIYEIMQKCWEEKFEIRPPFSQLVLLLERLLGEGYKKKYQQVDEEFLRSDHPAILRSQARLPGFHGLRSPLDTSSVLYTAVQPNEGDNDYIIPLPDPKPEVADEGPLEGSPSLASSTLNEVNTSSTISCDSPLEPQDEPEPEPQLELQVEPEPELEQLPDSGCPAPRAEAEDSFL

| Compound | IC50 [1] [µM] | IC50 (VEGFR2 kinase) [µM] | IC50 (PDGFRβ kinase) [µM] |
| --- | --- | --- | --- |
| CN(C)c1cccc(C(=O)Nc2cccc(Oc3ccnc(-c4cnn(C)c4)c3)c2)c1 [Example 28, 3-(Dimethylamino)-N-(3-(2-(1-methyl-1H-pyrazol-4-yl)pyridin-4-yloxy)phenyl)benzamide] | > 10 | > 10 | > 10 |
| Cn1cc(-c2cc(Oc3cccc(NC(=O)c4cccc5c4OCO5)c3)ccn2)cn1 [Example 29, N-(3-(2-(1-Methyl-1H-pyrazol-4-yl)pyridin-4-yloxy)phenyl)benzo[d][1,3]dioxole-4-carboxamide] | ≤ 10 | > 10 | > 10 |
| Cn1cc(-c2cc(Oc3cccc(NC(=O)c4cccc5c4OC(F)(F)O5)c3)ccn2)cn1 [Example 30, 2,2-Difluoro-N-(3-(2-(1-methyl-1H-pyrazol-4-yl)pyridin-4-yloxy)phenyl)benzo[d][1,3]dioxole-4-carboxamide] | > 10 | > 10 | > 10 |
| Cn1cc(-c2cc(Oc3cccc(NC(=O)c4cccc(-c5ccccc5)c4)c3)ccn2)cn1 [Example 31, N-(3-(2-(1-Methyl-1H-pyrazol-4-yl)pyridin-4-yloxy)phenyl)biphenyl-3-carboxamide] | > 10 | > 10 | > 10 |
| Cn1cc(-c2cc(Oc3cccc(NC(=O)c4cccc(-c5ccccn5)c4)c3)ccn2)cn1 [Example 32, N-(3-(2-(1-Methyl-1H-pyrazol-4-yl)pyridin-4-yloxy)phenyl)-3-(pyridin-2-yl)benzamide] | > 10 | > 10 | > 10 |
| Cn1cc(-c2cc(Oc3cccc(NC(=O)c4cccc(-c5cccnc5)c4)c3)ccn2)cn1 [Example 33, N-(3-(2-(1-Methyl-1H-pyrazol-4-yl)pyridin-4-yloxy)phenyl)-3-(pyridin-3-yl)benzamide] | > 10 | ≤ 10 | > 10 |
| Cn1cc(-c2cc(Oc3cccc(NC(=O)c4cccc(-c5ccncc5)c4)c3)ccn2)cn1 [Example 34, N-(3-(2-(1-Methyl-1H-pyrazol-4-yl)pyridin-4-yloxy)phenyl)-3-(pyridin-4-yl)benzamide] | > 10 | > 10 | > 10 |
| Cn1cc(-c2cc(Oc3cccc(NC(=O)c4cncc(-n5cccc5)c4)c3)ccn2)cn1 [Example 35, N-(3-(2-(1-Methyl-1H-pyrazol-4-yl)pyridin-4-yloxy)phenyl)-5-(1H-pyrrol-1-yl)nicotinamide] | > 10 | > 10 | > 10 |
| Cn1cc(-c2cc(Oc3cccc(NC(=O)c4ccccc4-n4ccnc4)c3)ccn2)cn1 [Example 36, 2-(1H-Imidazol-1-yl)-N-(3-(2-(1-methyl-1H-pyrazol-4-yl)pyridin-4-yloxy)phenyl) benzamide] | > 10 | ≤ 10 | ≤ 10 |
| Cn1cc(-c2cc(Oc3cccc(NC(=O)c4cccc(-n5ccnc5)c4)c3)ccn2)cn1 [Example 37, 3-(1H-Imidazol-1-yl)-N-(3-(2-(1-methyl-1H-pyrazol-4-yl)pyridin-4-yloxy)phenyl) benzamide] | > 10 | > 10 | > 10 |
| Cn1cc(-c2cc(Oc3cccc(NC(=O)c4cccc(-n5cnnc5)c4)c3)ccn2)cn1 [Example 38, N-(3-(2-(1-Methyl-1H-pyrazol-4-yl)pyridin-4-yloxy)phenyl)-3-(4H-1,2,4-triazol-4-yl)benzamide] | ≤ 10 | ≤ 10 | > 10 |
| Cn1cc(-c2cc(Oc3cccc(NC(=O)c4ccccc4OC(F)(F)F)c3)ccn2)cn1 [Example 39, N-(3-(2-(1-Methyl-1H-pyrazol-4-yl)pyridin-4-yloxy)phenyl)-2-(trifluoromethoxy)benzamide] | ≤ 10 | > 10 | > 10 |
| Cn1cc(-c2cc(Oc3cccc(NC(=O)c4cccc(OC(F)(F)F)c4)c3)ccn2)cn1 [Example 40, N-(3-(2-(1-Methyl-1H-pyrazol-4-yl)pyridin-4-yloxy)phenyl)-3-(trifluoromethoxy)benzamide] | > 10 | > 10 | > 10 |
| Cn1cc(-c2cc(Oc3cccc(NC(=O)c4cc(OC(F)(F)F)cc(OC(F)(F)F)c4)c3)ccn2)cn1 [Example 41, N-(3-(2-(1-methyl-1H-pyrazol-4-yl)pyridin-4-yloxy)phenyl)-3,5-bis(trifluoromethoxy)benzamide] | > 10 | > 10 | > 10 |
| Cn1cc(-c2cc(Oc3cccc(NC(=O)c4ccc(OC(F)(F)F)cc4OC(F)(F)F)c3)ccn2)cn1 [Example 42, N-(3-(2-(1-Methyl-1H-pyrazol-4-yl)pyridin-4-yloxy)phenyl)-2,4-bis(trifluoromethoxy)benzamide] | ≤ 10 | ≤ 10 | > 10 |
| Cn1cc(-c2cc(Oc3cccc(NC(=O)c4ccccc4C(F)(F)F)c3)ccn2)cn1 [Example 43, N-(3-(2-(1-Methyl-1H-pyrazol-4-yl)pyridin-4-yloxy)phenyl)-2-(trifluoromethyl)benzamide] | ≤ 10 | ≤ 10 | ≤ 10 |
| Cn1cc(-c2cc(Oc3cccc(NC(=O)c4cccc(C(F)(F)F)c4)c3)ccn2)cn1 [Example 44, N-(3-(2-(1-Methyl-1H-pyrazol-4-yl)pyridin-4-yloxy)phenyl)-3-(trifluoromethyl)benzamide] | > 10 | > 10 | > 10 |
| Cn1cc(-c2cc(Oc3cccc(NC(=O)c4ccc(C(F)(F)F)cc4)c3)ccn2)cn1 [Example 45, N-(3-(2-(1-Methyl-1H-pyrazol-4-yl)pyridin-4-yloxy)phenyl)-4-(trifluoromethyl)benzamide] | ≤ 10 | > 10 | > 10 |
| Cn1cc(-c2cc(Oc3cccc(NC(=O)c4cccc(C#N)c4)c3)ccn2)cn1 [Example 46, 3-Cyano-N-(3-(2-(1-methyl-1H-pyrazol-4-yl)pyridin-4-yloxy)phenyl)benzamide] | ≤ 10 | > 10 | > 10 |
| Cn1cc(-c2cc(Oc3cccc(NC(=O)c4ccc(C#N)cc4)c3)ccn2)cn1 [Example 47, 4-Cyano-N-(3-(2-(1-methyl-1H-pyrazol-4-yl)pyridin-4-yloxy)phenyl)benzamide] | ≤ 10 | > 10 | > 10 |
| Cn1cc(-c2cc(Oc3cccc(NC(=O)c4ccccc4C(=O)c4ccccc4)c3)ccn2)cn1 [Example 49, 2-Benzoyl-N-(3-(2-(1-methyl-1H-pyrazol-4-yl)pyridin-4-yloxy)phenyl)benzamide] | > 10 | ≤ 10 | ≤ 10 |
| Cn1cc(-c2cc(Oc3cccc(NC(=O)c4cccc(C(=O)c5ccccc5)c4)c3)ccn2)cn1 [Example 50, 3-Benzoyl-N-(3-(2-(1-methyl-1H-pyrazol-4-yl)pyridin-4-yloxy)phenyl)benzamide] | > 10 | ≤ 10 | > 10 |
| Cn1cc(-c2cc(Oc3cccc(NC(=O)c4ccc(C(=O)c5ccccc5)cc4)c3)ccn2)cn1 [Example 51, 4-Benzoyl-N-(3-(2-(1-methyl-1H-pyrazol-4-yl)pyridin-4-yloxy)phenyl)benzamide] | ≤ 10 | ≤ 10 | > 10 |
| Cn1cc(-c2cc(Oc3cccc(NC(=O)c4cccc5ccccc45)c3)ccn2)cn1 [Example 52, N-(3-(2-(1-Methyl-1H-pyrazol-4-yl)pyridin-4-yloxy)phenyl)-1-naphthamide] | > 10 | > 10 | > 10 |
| Cn1cc(-c2cc(Oc3cccc(NC(=O)c4ccc5ccccc5c4)c3)ccn2)cn1 [Example 53, N-(3-(2-(1-Methyl-1H-pyrazol-4-yl)pyridin-4-yloxy)phenyl)-2-naphthamide] | > 10 | > 10 | > 10 |
